Tests used:
[1] = tested on: PD-1 wild-type tumors (primary CTCL); assay: Inhibitor treatment of human cells in vitro, division index, PD-1 wild-type CTCL cells; format: cell-based; conditions: 2-DG 1 mM, everolimus 0.1 μM, BMS-303141 10 μM; 6 days; FIG. 7E
Protocol: FIGS. 7A-7H show ACLY dependency and AP-1 activation in human PDCD1 defective T-NHL. […] CNA, copy number aberrations. FIG. 7B GSEA for the indicated gene sets based on RNA-seq data from the 21 CTCL patients shown in (a). NES, normalized enrichment score; FDR, false discovery rate. […] P=one-way ANOVA and two-sided Student's t-test. Shown are the mean±SD and individual data points. […] FACS-sorted malignant cells were stimulated with anti-CD3/anti-CD28 beads, and 2-NBDG uptake was determined at the indicated time points. P=two-sided Student's t-test. Shown are the mean±SEM and individual data points. […] CFSE, carboxyfluorescein succinimidyl ester. P=two-sided Student's t-test. The data are presented as the mean±SEM and individual data points. […] Legend as in (5a). […] FIG. 7H GSEA for the indicated gene sets with RNA-seq data from 21 CTCL PDCD1mut” or “PDCD1 wt, and three patients with hyperprogression. NES, normalized enrichment score; FDR, false discovery rate. FIGS. 7A and 7B, Data from a single experiment with 21 patients. FIGS. 7C and 7D, Data from one experiment with three patients per group and three healthy donors. FIG. 7E, Data from one experiment with three patients and three healthy donors. FIGS. 7F and 7G, Data from one experiment with three patients per group. FIG. 7H, Data from a single experiment.
Isolation of primary human CTCL cells. This study was approved by the Northwestern University Institutional Review Board. Patients provided informed consent for inclusion in the study. […] The tumor burden for each patient was determined using well-validated clinical markers, taking whichever value was higher between Sezary cell counts or the CD26 negative cell number by clinical flow cytometry. These were analyzed in conjunction with white blood cell and absolute lymphocyte counts.
Inhibitor treatment of human cells in vitro Malignant CTCL cells and CD4^+ T cells from healthy donors were isolated as previously described. […] After 6 days, the cells were analyzed by flow cytometry, and the division index was determined using the FlowJo proliferation tool (v10.6, FlowJo LLC).

ITK-SYK^+PD-1− cells = assay: Lactate production of ITK-SYK+PD-1− cells incubated with small molecule inhibitors; format: cell-based, mouse; conditions: ITK-SYK+PD-1− cells in vitro; FIGS. 10A-C
Protocol: (§1) Cell culture. Unless otherwise indicated, murine cells were cultured in DMEM containing 20% FCS. The following compounds were used for the in vitro experiments: glycolysis inhibitor 2-deoxy-D-glucose (D8375, Sigma), mTOR inhibitor Torin-1 (S2827, Selleckchem), HIF1α inhibitor PX-478 2HCl (S7612, Selleckchem), ATP citrate lyase inhibitor BMS-303141 (4609, Tocris), fatty acid synthase inhibitor FT113 (S6666, Selleckchem), and BET-p300/CBP dual inhibitor NE02734 (S9648, Selleckchem). Inhibitors were dissolved in DMSO or water, and the cell culture medium was supplemented with the indicated concentrations of the compound or DMSO/water (as control).
To test the dependency of fully transformed lymphomas with Pdcd1 deletion on the released mTOR-HIF1α-glycolysis cascade, Applicants incubated ITK-SYK^+PD-1− cells with small molecule inhibitors of mTOR, HIF1α, or glycolysis^22,23.

[2] = tested on: ITK-SYK^+PD-1^− lymphoma cells; assay: In vitro survival of PD-1 deficient lymphoma cells under inhibitor treatment; format: cell-based, mouse; conditions: FIGS. 10D-F
Protocol: as §1
To determine whether ACLY activity is required for PD-1-deficient lymphoma cell survival, Applicants next incubated transformed ITK-SYK^+PD-1− T cells from tamoxifen-injected ITK-SYK^CD4-creERT2; Pdcd1^−/− mice with an ACLY inhibitor. This treatment killed the ITK-SYK^+PD-1^− lymphoma cells (FIG. 11F, p=0.0037).

| SMILES | response of stage-matched PD-1 wild-type tumors (relative division index) [1] | production of lactate (ITK-SYK^+PD-1− cells) | toxicity to PD-1 deficient lymphoma cells [2] |
| --- | --- | --- | --- |
| COc1ccc(-c2ccccc2)cc1NS(=O)(=O)c1cc(Cl)cc(Cl)c1O [BMS-303141] | resistant | – | – |
| O=CC[C@@H](O)[C@H](O)[C@H](O)CO [2-DG, 2-deoxy-D-glucose] | resistant | reduced the production of lactate | toxic |
